Measurements reported in ChEMBL document CHEMBL5726052, “Substituted triazoles useful as Axl inhibitors” (2019).

Target: T1, Tyrosine-protein kinase receptor UFO (Homo sapiens, UniProt P30530)
T1 sequence (P30530 whole entry): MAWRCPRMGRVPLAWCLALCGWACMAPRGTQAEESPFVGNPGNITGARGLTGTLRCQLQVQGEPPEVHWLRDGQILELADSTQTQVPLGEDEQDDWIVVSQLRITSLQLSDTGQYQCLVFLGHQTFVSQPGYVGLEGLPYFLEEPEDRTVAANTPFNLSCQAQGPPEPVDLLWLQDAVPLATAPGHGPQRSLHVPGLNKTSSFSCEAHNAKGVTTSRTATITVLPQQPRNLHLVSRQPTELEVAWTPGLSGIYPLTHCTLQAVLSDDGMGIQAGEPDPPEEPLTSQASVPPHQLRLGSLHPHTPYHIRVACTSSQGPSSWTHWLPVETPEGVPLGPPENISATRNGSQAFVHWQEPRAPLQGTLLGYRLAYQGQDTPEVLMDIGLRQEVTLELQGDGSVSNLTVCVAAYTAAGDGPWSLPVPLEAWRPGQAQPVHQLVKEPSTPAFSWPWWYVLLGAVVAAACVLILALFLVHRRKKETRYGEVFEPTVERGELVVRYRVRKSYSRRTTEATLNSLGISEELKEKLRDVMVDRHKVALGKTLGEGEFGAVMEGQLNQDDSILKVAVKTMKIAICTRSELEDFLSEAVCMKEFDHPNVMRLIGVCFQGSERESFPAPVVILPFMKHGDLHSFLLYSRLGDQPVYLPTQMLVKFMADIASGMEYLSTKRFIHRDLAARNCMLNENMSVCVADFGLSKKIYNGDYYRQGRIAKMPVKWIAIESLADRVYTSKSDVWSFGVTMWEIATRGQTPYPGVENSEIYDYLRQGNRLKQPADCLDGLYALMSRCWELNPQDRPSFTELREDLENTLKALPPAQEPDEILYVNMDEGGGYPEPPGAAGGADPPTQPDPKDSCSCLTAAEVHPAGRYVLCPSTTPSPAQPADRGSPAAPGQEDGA
Assay: PHOSPHO-AKT IN-CELL WESTERN ASSAY: The resulting chemiluminescence was read with a Luminomitor within 10 minutes to minimize changes in signal intensity. After reading the chemiluminescence, the cells were washed 1× with wash buffer and 1× with PBS by plate washer. The plate was tapped onto paper towels to remove excess liquid from wells and air-dried at ambient temperature for 5 minutes.

Work on `Nc1nc(Nc2ccc(OCCN3CCCCC3)cc2)n(-c2ccccc2)n1` yielded an IC50 greater than 20 µM.
